Among the data in PubChem BioAssay AID608 (Sanford-Burnham Center for Chemical Genomics, 2007) are Kd values, retold here.

The structures appear in SMILES notation. Active and inactive are the calls of the source. How the calls were made is not given here.

The target in this experiment is Peptidyl-prolyl cis-trans isomerase FKBP1A (Homo sapiens) (UniProt P62942). Briefly: FKBP12 binders, biophysical, NMR detection (AID 608). As to conditions: NMR binding, purified FKBP12.
Peptidyl-prolyl cis-trans isomerase FKBP1A (Homo sapiens), sequence (P62942 whole entry, looked up): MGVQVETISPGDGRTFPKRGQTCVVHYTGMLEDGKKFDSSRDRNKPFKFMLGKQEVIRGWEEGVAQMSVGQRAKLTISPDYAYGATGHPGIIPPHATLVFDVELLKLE
As to `COC(=O)NCc1cc2cc(Cl)ccc2[nH]1`, the Kd – broadly, a measure of binding affinity in units of concentration – is > 4 mM (inactive).

`CN1C(CC(=O)c2ccccc2)CCCC1CC(O)c1ccccc1` (stereo not drawn): the Kd was > 4 mM (inactive). The value for `O=c1[nH]c(=O)c2[nH]cnc2[nH]1` was > 4 mM (inactive); that for `Cc1ccc(CCC(N)=O)o1` was > 4 mM (inactive). Turning to `COc1ccc(-c2cc(=O)c3cc(OC)ccc3o2)cc1`, the Kd was > 4 mM (inactive).

With `O=C1CC(=O)N(c2ccccc2)c2ccccc21`, the Kd was > 4 mM (inactive). Consider `CCOC(=O)c1c(C)cc(O)c(C=O)c1O`, for which the Kd was > 4 mM (inactive). On to `C(=N\c1ncn[nH]1)/c1cccs1`, for which the Kd is > 4 mM (inactive). The value for `CC(CC(O)C1OC1(C)C)[C@@H]1CCC2(C)C3=CCC4C(C)(C)C(=O)CCC4(C)C3CC[C@@]12C` (stereo partly drawn) was > 4 mM (inactive); that for `Cc1sc2nc(SC3CCOC3=O)[nH]c(=O)c2c1C` (stereo not drawn) was > 4 mM (inactive); that for `O=C(NC1CCS(=O)(=O)C1)c1cccs1` (stereo not drawn) was > 4 mM (inactive). Under `NS(=O)(=O)c1ccc(N=Cc2ccc[nH]2)cc1` stands > 4 mM (inactive). With `COC(=O)c1ccccc1N(C)S(C)(=O)=O`, the Kd is > 4 mM (inactive). Under `O=C1CSC(=Nc2ccc(O)cc2)N1` stands > 4 mM (inactive); under `C=C1CCC2C(CC2(C)C)C(=O)CCC1O` (stereo not drawn), > 4 mM (inactive); under `Nc1nc2ccc(N3CCOCC3)cc2s1`, > 4 mM (inactive). In the case of `NCc1csc(-c2ccccc2)n1`, the Kd was > 4 mM (inactive).

Turning to `CN1CCN(C(=S)c2ccc(N(C)C)cc2)CC1`, the Kd was > 4 mM (inactive). With `O=[N+]([O-])c1ccc(/C=N/c2ncn[nH]2)cc1`, the Kd was > 4 mM (inactive). Under `Cc1cc(C)n(CCC(=O)O)n1` stands > 4 mM (inactive); under `COc1ccc2c(c1)OC/C(=C/c1ccc(O)c(O)c1)C2=O`, > 4 mM (inactive). Under `C=C1C2CC[C@@]3(C)[C@H](c4ccoc4)OC(=O)C[C@]13O[C@H]1CC(=O)C(C)(C)[C@H](C(OC(C)=O)C(=O)OC)[C@@]21C` (stereo partly drawn) stands > 4 mM (inactive). As for `CN(C)Cc1nc2c([nH]1)c(=O)[nH]c(=O)n2C`, the Kd was > 4 mM (inactive). The value for `NC(CCC(=O)Nc1ccc([N+](=O)[O-])cc1)C(=O)O` (stereo not drawn) was > 4 mM (inactive); that for `Cc1nnc2sc(-c3csc4c3CCCC4)nn12` was > 4 mM (inactive). The value for `CO[C@H]1[C@@H](O)[C@@H](C)O[C@H](O[C@H]2CCC3(C)C4CCC5(C)[C@@H](C6=CC(=O)OC6)CC[C@]5(O)[C@@H]4CC[C@]3(O)C2)[C@@H]1O` (stereo partly drawn) was > 4 mM (inactive); that for `CCCCCC1C(=O)CCC1CC(=O)OC` (stereo not drawn) was > 4 mM (inactive). The value for `O=C(NCCO)c1cc2ccccc2cc1O` was > 4 mM (inactive); that for `Cn1cc(C(=O)N/N=C/c2ccccc2)ccc1=O` was > 4 mM (inactive); that for `CC1CN(C(=O)c2ccncc2)CC(C)O1` (stereo not drawn) was > 4 mM (inactive). With `Cc1occc1C(=O)Nc1cc(C(C)(C)C)on1`, the Kd was > 4 mM (inactive). The value for `NC(=O)c1ccc(NC(=O)c2ccco2)cc1` was > 4 mM (inactive). Under `Cc1ccc(C(=O)NC2=NCCS2)o1` stands > 4 mM (inactive). Under `O=c1ccc2cc(O)c(O)cc2o1` stands > 4 mM (inactive); under `O=c1ccc(=O)n(CN2CCc3ccccc3C2)[nH]1`, > 4 mM (inactive); under `CSc1ccccc1NC(=O)Cn1c(-c2cscn2)nc2ccccc21`, > 4 mM (inactive). For the molecule `Cc1ccc(-c2c(C)n([O-])c(C)c(C)[n+]2=O)cc1`, the Kd was > 4 mM (inactive). Under `O=C(NN1C(=O)CSC1=S)c1ccccc1` stands > 4 mM (inactive); under `Cc1csc2nc(=O)c3ccccc3n12`, > 4 mM (inactive). Turning to `O=[n+]1c(CO)c(CO)n([O-])c2ccccc21`, the Kd is > 4 mM (inactive). The value for `Cc1nc(-c2cc(CO)no2)cs1` was > 4 mM (inactive).

In the case of `Cc1ccc(/C=N/NC(N)=O)o1`, the Kd is > 4 mM (inactive). Under `CC(=O)OC1CCC23CC1(C)CCC2C(C)(C)CC3OC(C)=O` (stereo not drawn) stands > 4 mM (inactive); under `CC(=O)Nc1cccc(Cn2cccn2)c1`, > 4 mM (inactive); under `Cc1c(C(=O)Nc2cnccn2)oc2ccccc12`, > 4 mM (inactive). Under `Nc1ncnc2c1ncn2CCOc1ccccc1` stands > 4 mM (inactive); under `CC1(C)C2CC(=O)[C@]3(C)C(CC[C@@]4(C)[C@H](c5ccoc5)OC(=O)[C@H]5O[C@]543)[C@@]2(C)C=C[C@@H]1O` (stereo partly drawn), > 4 mM (inactive). Under `Cc1nc2cc(NC(=O)Nc3nccs3)ccc2n1C` stands > 4 mM (inactive). On to `CC12CCCC(O)(C1)C1CC(C)(C)C1CC2` (stereo not drawn), for which the Kd is > 4 mM (inactive). Under `O=C(Nc1nnc(-c2ccco2)o1)C1=COCCO1` stands > 4 mM (inactive); under `Nc1ccc(Cl)nn1`, > 4 mM (inactive); under `COCc1cc(Cl)nc(-c2csc(C)n2)n1`, > 4 mM (inactive). Turning to `OCCNC(=S)Nc1ccc(F)cc1`, the Kd is > 4 mM (inactive). Under `Cc1nn(-c2ccccc2)nc1C(N)=O` stands > 4 mM (inactive); under `O=C(O)C1CSC(c2cccnc2)N1` (stereo not drawn), > 4 mM (inactive); under `O=C(O)CCCNC(=O)c1ccccc1C(=O)O`, > 4 mM (inactive). The value for `Cc1nccc(-c2cccc(N)c2)n1` was > 4 mM (inactive); that for `COc1c2occc2cc2ccc(=O)oc12` was > 4 mM (inactive). Turning to `CNc1nc(SC)nc(N2CCOCC2)n1`, the Kd was > 4 mM (inactive).

As to `N#CCc1nc2ccccc2s1`, the Kd is > 4 mM (inactive). Turning to `COc1ccc(-c2cc(=O)c3ccccc3o2)cc1`, the Kd is > 4 mM (inactive). Under `C[C@@H]1CC[C@@]23CCC4(C)[C@@](C=CC5[C@@]6(C)CC[C@H](O)C(C)(C)C6CC[C@]54C)(OC2=O)C3[C@H]1C` (stereo partly drawn) stands > 4 mM (inactive). Under `NC(=O)C1CCN(C(=O)CN2CCc3ccccc32)CC1` stands > 4 mM (inactive); under `O=C(Nc1ccon1)c1cccc(C(F)(F)F)c1`, > 4 mM (inactive). Under `CC(=O)Oc1c(-c2ccccc2)oc2c(CC=C(C)C)c3c(c(OC(C)=O)c2c1=O)C=CC(C)(C)O3` stands > 4 mM (inactive); under `O=c1[nH]c2ccc(S(=O)(=O)NC3CC3)cc2[nH]1`, > 4 mM (inactive).

On to `CN1CCC(=NNC(=O)c2ccco2)CC1`, for which the Kd is > 4 mM (inactive).

Take `COC(=O)c1ccccc1C`: the Kd was > 4 mM (inactive). Under `Cc1ccc(S(=O)(=O)CC(N)=O)cc1` stands > 4 mM (inactive); under `OC1CNCc2cc3c(cc21)OCCO3` (stereo not drawn), > 4 mM (inactive); under `C[n+]1cc2c3c(ccc2c2ccc4cc5c(cc4c21)OCO5)OCO3`, > 4 mM (inactive). Under `N#CCN1C(=O)c2ccccc2S1(=O)=O` stands > 4 mM (inactive); under `Cc1occc1C(=O)NCc1ccncc1`, > 4 mM (inactive).
